Experiments:
Type in all cases: in vivo
[1] = tested on: beet; assay: Test Example 4: effect on crop by soil treatment (symbol f); conditions: application herbicide amount 320 g/ha
Procedure, shortened: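 Grown at 25° C. to 30° C. in a greenhouse, the crops came from seed sown spot-wise in sterilized diluvial soil under roughly 1.5 cm of covering soil.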

[2] = tested on: Digitaria ciliaris; assay: Test Example 4: herbicidal effect by soil treatment (symbol F); conditions: application herbicide amount 320 g/ha
Procedure, shortened: (§1)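 Seeds were sown in sterilized diluvial soil, covered with about 1.5 cm of soil, and the soil surface was sprayed with a water-diluted emulsion of the compound at a predetermined rate. Plants grew in a greenhouse at 25° C. to 30° C.; effects were scored visually 3 weeks after application.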

[3] = tested on: Apera spica-venti; assay: Test Example 5: herbicidal effect by foliage application, plastic box (symbol L); conditions: 320 g/ha, 3 weeks after application
Procedure, shortened: (§2)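 Seeds were sown in sterilized diluvial soil, covered with about 1.5 cm of soil and grown 14 days in a greenhouse at 25° C. to 30° C. An emulsifiable formulation diluted in water to a set rate was sprayed over foliage, and injury was scored 3 weeks later.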

[4] = tested on: rapeseed; assay: Test Example 5: effect on crop by foliage application, plastic box (symbol g); conditions: 320 g/ha, 3 weeks after application
Procedure, shortened: (§3)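 Sterilized diluvial soil, plastic box (21 × 13 × 7 cm); spot sowing, ~1.5 cm soil cover; greenhouse 25–30° C.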

[5] = tested on: Monochoria vaginalis; assay: Test Example 1: herbicidal activity, application before weed generation in submerged conditions (symbol C); conditions: application herbicide amount 320 g/ha
Procedure, shortened: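 Flooded alluvial soil (4 cm water) was mixed-sown with the three weed species, and 2.5-leaf rice seedlings were transplanted. On sowing day, a water-diluted emulsion at a predetermined rate was applied to the water surface. After 3 weeks in a 25–30 °C greenhouse, effect was scored 0–5.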

[6] = tested on: Stellaria media; assay: Test Example 4: herbicidal effect by soil treatment (symbol P); conditions: application herbicide amount 320 g/ha
Procedure, shortened: as §1

[7] = tested on: Echinochloa crus-galli var. crus-galli; assay: Test Example 5: herbicidal effect by foliage application, plastic box (symbol H); conditions: 320 g/ha, 3 weeks after application
Procedure, shortened: as §2

[8] = tested on: Echinochloa crus-galli var. crus-galli; assay: Test Example 4: herbicidal effect by soil treatment (symbol H); conditions: application herbicide amount 320 g/ha
Procedure, shortened: as §1

[9] = tested on: Abutilon theophrasti; assay: Test Example 5: herbicidal effect by foliage application, plastic box (symbol M); conditions: 320 g/ha, 3 weeks after application
Procedure, shortened: as §2

[10] = tested on: rice plant; assay: Test Example 5: effect on crop by foliage application, plastic box (symbol b); conditions: 320 g/ha, 3 weeks after application
Procedure, shortened: as §3

[11] = tested on: Alopecurus myosuroides; assay: Test Example 5: herbicidal effect by foliage application, plastic box (symbol J); conditions: 320 g/ha, 3 weeks after application
Procedure, shortened: as §2

[12] = tested on: Scirpus juncoides; assay: Test Example 2: herbicidal activity, application during weed generation in submerged conditions (symbol B); conditions: Table 23; application herbicide amount 320 g/ha; grade 0-5 by criteria of Test Example 1
Procedure, shortened: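 Paddy pot test, submerged (4 cm water), alluvial soil, mixed sowing; greenhouse 25–30° C. Emulsion formulation diluted to predetermined rate, applied onto floodwater at 1–2 leaf stage. Visual herbicidal rating at 3 wk post-treatment.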

## C=CC(=O)CC1CC(O)=C(c2c(C)cc(C)cc2C)C1=O (stereo not drawn) [2-031]
[1]
  f: beet, effect on crop grade: 0 (Herbicidal ratio of 5% or lower (almost no effect))
[2]
  F: Digitaria ciliaris, herbicidal effect grade: 5 (Herbicidal ratio of 90% or more (almost completely withered))
[3]
  L: Apera spica-venti, herbicidal effect grade: 4 (Herbicidal ratio of 70% or higher and lower than 90%)
[4]
  g: rapeseed, effect on crop grade: 4 (Herbicidal ratio of 70% or higher and lower than 90%)
[5]
  Herbicidal effect grade, C: Monochoria vaginalis: 2 (Herbicidal ratio of 20% or higher and lower than 40%)
[6]
  P: Stellaria media, herbicidal effect grade: 0 (Herbicidal ratio of 5% or lower (almost no effect))
[7]
  H: Echinochloa crus-galli var. crus-galli, herbicidal effect grade: 5 (Herbicidal ratio of 90% or more (almost completely withered))
[8]
  H: Echinochloa crus-galli var. crus-galli, herbicidal effect grade: 5 (Herbicidal ratio of 90% or more (almost completely withered))
[9]
  M: Abutilon theophrasti, herbicidal effect grade: 0 (Herbicidal ratio of 5% or lower (almost no effect))
[10]
  b: directly sowed rice plant, effect on crop grade: 5 (Herbicidal ratio of 90% or more (almost completely withered))
[11]
  J: Alopecurus myosuroides, herbicidal effect grade: 5 (Herbicidal ratio of 90% or more (almost completely withered))
[12]
  Herbicidal effect grade, B: Scirpus juncoides: 0 (Herbicidal ratio of 5% or lower (almost no effect))

## Cc1cc(C)c(C2=C(O)CC(CC(=O)c3ccc(F)cc3)C2=O)c(C)c1 (stereo not drawn) [2-032]
[1]
  f: beet, effect on crop grade: 0 (Herbicidal ratio of 5% or lower (almost no effect))
[2]
  F: Digitaria ciliaris, herbicidal effect grade: 4 (Herbicidal ratio of 70% or higher and lower than 90%)
[3]
  L: Apera spica-venti, herbicidal effect grade: 5 (Herbicidal ratio of 90% or more (almost completely withered))
[4]
  g: rapeseed, effect on crop grade: 4 (Herbicidal ratio of 70% or higher and lower than 90%)
[5]
  Herbicidal effect grade, C: Monochoria vaginalis: 1 (Herbicidal ratio of 5% or higher and lower than 20%)
[6]
  P: Stellaria media, herbicidal effect grade: 0 (Herbicidal ratio of 5% or lower (almost no effect))
[7]
  H: Echinochloa crus-galli var. crus-galli, herbicidal effect grade: 5 (Herbicidal ratio of 90% or more (almost completely withered))
[8]
  H: Echinochloa crus-galli var. crus-galli, herbicidal effect grade: 4 (Herbicidal ratio of 70% or higher and lower than 90%)
[9]
  M: Abutilon theophrasti, herbicidal effect grade: 0 (Herbicidal ratio of 5% or lower (almost no effect))
[10]
  b: directly sowed rice plant, effect on crop grade: 5 (Herbicidal ratio of 90% or more (almost completely withered))
[11]
  J: Alopecurus myosuroides, herbicidal effect grade: 4 (Herbicidal ratio of 70% or higher and lower than 90%)
[12]
  Herbicidal effect grade, B: Scirpus juncoides: 1 (Herbicidal ratio of 5% or higher and lower than 20%)

## CCc1cc(Br)cc(C)c1C1=C(O)CC(CC(C)=NOC)C1=O (stereo not drawn) [6-001]
[1]
  f: beet, effect on crop grade: 0 (Herbicidal ratio of 5% or lower (almost no effect))
[2]
  F: Digitaria ciliaris, herbicidal effect grade: 5 (Herbicidal ratio of 90% or more (almost completely withered))
[3]
  L: Apera spica-venti, herbicidal effect grade: 5 (Herbicidal ratio of 90% or more (almost completely withered))
[4]
  g: rapeseed, effect on crop grade: 2 (Herbicidal ratio of 20% or higher and lower than 40%)
[5]
  Herbicidal effect grade, C: Monochoria vaginalis: 0 (Herbicidal ratio of 5% or lower (almost no effect))
[6]
  P: Stellaria media, herbicidal effect grade: 0 (Herbicidal ratio of 5% or lower (almost no effect))
[7]
  H: Echinochloa crus-galli var. crus-galli, herbicidal effect grade: 5 (Herbicidal ratio of 90% or more (almost completely withered))
[8]
  H: Echinochloa crus-galli var. crus-galli, herbicidal effect grade: 5 (Herbicidal ratio of 90% or more (almost completely withered))
[9]
  M: Abutilon theophrasti, herbicidal effect grade: 0 (Herbicidal ratio of 5% or lower (almost no effect))
[10]
  b: directly sowed rice plant, effect on crop grade: 5 (Herbicidal ratio of 90% or more (almost completely withered))
[11]
  J: Alopecurus myosuroides, herbicidal effect grade: 5 (Herbicidal ratio of 90% or more (almost completely withered))
[12]
  Herbicidal effect grade, B: Scirpus juncoides: 0 (Herbicidal ratio of 5% or lower (almost no effect))

## CCc1cc(Br)cc(C)c1C1=C(O)CC(C(C(=O)OC)C(C)=NOC)C1=O (stereo not drawn) [6-002]
[1]
  f: beet, effect on crop grade: 0 (Herbicidal ratio of 5% or lower (almost no effect))
[2]
  F: Digitaria ciliaris, herbicidal effect grade: 2 (Herbicidal ratio of 20% or higher and lower than 40%)
[3]
  L: Apera spica-venti, herbicidal effect grade: 5 (Herbicidal ratio of 90% or more (almost completely withered))
[4]
  g: rapeseed, effect on crop grade: 0 (Herbicidal ratio of 5% or lower (almost no effect))
[5]
  Herbicidal effect grade, C: Monochoria vaginalis: 0 (Herbicidal ratio of 5% or lower (almost no effect))
[6]
  P: Stellaria media, herbicidal effect grade: 0 (Herbicidal ratio of 5% or lower (almost no effect))
[7]
  H: Echinochloa crus-galli var. crus-galli, herbicidal effect grade: 5 (Herbicidal ratio of 90% or more (almost completely withered))
[8]
  H: Echinochloa crus-galli var. crus-galli, herbicidal effect grade: 2 (Herbicidal ratio of 20% or higher and lower than 40%)
[9]
  M: Abutilon theophrasti, herbicidal effect grade: 1 (Herbicidal ratio of 5% or higher and lower than 20%)
[10]
  b: directly sowed rice plant, effect on crop grade: 5 (Herbicidal ratio of 90% or more (almost completely withered))
[11]
  J: Alopecurus myosuroides, herbicidal effect grade: 5 (Herbicidal ratio of 90% or more (almost completely withered))
[12]
  Herbicidal effect grade, B: Scirpus juncoides: 0 (Herbicidal ratio of 5% or lower (almost no effect))

## CON=C(C)CC1CC(O)=C(c2c(C)cc(Br)cc2C)C1=O (stereo not drawn) [6-003]
[1]
  f: beet, effect on crop grade: 0 (Herbicidal ratio of 5% or lower (almost no effect))
[2]
  F: Digitaria ciliaris, herbicidal effect grade: 5 (Herbicidal ratio of 90% or more (almost completely withered))
[3]
  L: Apera spica-venti, herbicidal effect grade: 5 (Herbicidal ratio of 90% or more (almost completely withered))
[4]
  g: rapeseed, effect on crop grade: 4 (Herbicidal ratio of 70% or higher and lower than 90%)
[5]
  Herbicidal effect grade, C: Monochoria vaginalis: 1 (Herbicidal ratio of 5% or higher and lower than 20%)
[6]
  P: Stellaria media, herbicidal effect grade: 0 (Herbicidal ratio of 5% or lower (almost no effect))
[7]
  H: Echinochloa crus-galli var. crus-galli, herbicidal effect grade: 5 (Herbicidal ratio of 90% or more (almost completely withered))
[8]
  H: Echinochloa crus-galli var. crus-galli, herbicidal effect grade: 5 (Herbicidal ratio of 90% or more (almost completely withered))
[9]
  M: Abutilon theophrasti, herbicidal effect grade: 3 (Herbicidal ratio of 40% or higher and lower than 70%)
[10]
  b: directly sowed rice plant, effect on crop grade: 5 (Herbicidal ratio of 90% or more (almost completely withered))
[11]
  J: Alopecurus myosuroides, herbicidal effect grade: 5 (Herbicidal ratio of 90% or more (almost completely withered))
[12]
  Herbicidal effect grade, B: Scirpus juncoides: 1 (Herbicidal ratio of 5% or higher and lower than 20%)

## CON=C(C)CC1CC(O)=C(c2c(C)cc(-c3ccccc3)cc2C)C1=O (stereo not drawn) [6-015]
[1]
  f: beet, effect on crop grade: 0 (Herbicidal ratio of 5% or lower (almost no effect))
[2]
  F: Digitaria ciliaris, herbicidal effect grade: 5 (Herbicidal ratio of 90% or more (almost completely withered))
[3]
  L: Apera spica-venti, herbicidal effect grade: 5 (Herbicidal ratio of 90% or more (almost completely withered))
[4]
  g: rapeseed, effect on crop grade: 4 (Herbicidal ratio of 70% or higher and lower than 90%)
[5]
  Herbicidal effect grade, C: Monochoria vaginalis: 5 (Herbicidal ratio of 90% or more (almost completely withered))
[6]
  P: Stellaria media, herbicidal effect grade: 2 (Herbicidal ratio of 20% or higher and lower than 40%)
[7]
  H: Echinochloa crus-galli var. crus-galli, herbicidal effect grade: 5 (Herbicidal ratio of 90% or more (almost completely withered))
[8]
  H: Echinochloa crus-galli var. crus-galli, herbicidal effect grade: 5 (Herbicidal ratio of 90% or more (almost completely withered))
[9]
  M: Abutilon theophrasti, herbicidal effect grade: 2 (Herbicidal ratio of 20% or higher and lower than 40%)
[10]
  b: directly sowed rice plant, effect on crop grade: 5 (Herbicidal ratio of 90% or more (almost completely withered))
[11]
  J: Alopecurus myosuroides, herbicidal effect grade: 5 (Herbicidal ratio of 90% or more (almost completely withered))
[12]
  Herbicidal effect grade, B: Scirpus juncoides: 5 (Herbicidal ratio of 90% or more (almost completely withered))

## CON=C(C)CC1CC(O)=C(c2c(C)cc(C)cc2OC)C1=O (stereo not drawn) [6-037, 3-hydroxy-2-(2-methoxy-4,6-dimethylphenyl)-5-{2-(methoxyimino)propyl}cyclopent-2-enone]
[1]
  f: beet, effect on crop grade: 0 (Herbicidal ratio of 5% or lower (almost no effect))
[2]
  F: Digitaria ciliaris, herbicidal effect grade: 5 (Herbicidal ratio of 90% or more (almost completely withered))
[3]
  L: Apera spica-venti, herbicidal effect grade: 5 (Herbicidal ratio of 90% or more (almost completely withered))
[4]
  g: rapeseed, effect on crop grade: 5 (Herbicidal ratio of 90% or more (almost completely withered))
[5]
  Herbicidal effect grade, C: Monochoria vaginalis: 4 (Herbicidal ratio of 70% or higher and lower than 90%)
[6]
  P: Stellaria media, herbicidal effect grade: 0 (Herbicidal ratio of 5% or lower (almost no effect))
[7]
  H: Echinochloa crus-galli var. crus-galli, herbicidal effect grade: 5 (Herbicidal ratio of 90% or more (almost completely withered))
[8]
  H: Echinochloa crus-galli var. crus-galli, herbicidal effect grade: 5 (Herbicidal ratio of 90% or more (almost completely withered))
[9]
  M: Abutilon theophrasti, herbicidal effect grade: 5 (Herbicidal ratio of 90% or more (almost completely withered))
[10]
  b: directly sowed rice plant, effect on crop grade: 5 (Herbicidal ratio of 90% or more (almost completely withered))
[11]
  J: Alopecurus myosuroides, herbicidal effect grade: 5 (Herbicidal ratio of 90% or more (almost completely withered))
[12]
  Herbicidal effect grade, B: Scirpus juncoides: 4 (Herbicidal ratio of 70% or higher and lower than 90%)
